Assays:
HeLa = test: MTT cell viability assay, HeLa cells; assay type: cell-based; conditions: Homo sapiens, 48 h treatment, ± SD, two experiments, 8 replicates
Jurkat cells [1] = test: Flow cytometric annexin-V/propidium iodide apoptosis assay; assay type: cell-based, human; conditions: 5 μM, 36 h
Procedure: Since many clinically used anticancer agents induce apoptosis in cancer cells, we tested the pyranopyridone analogues for their ability to induce apoptosis in Jurkat (model for human T-cell leukemia) cells using the flow cytometric annexin-V/propidium iodide assay (FIG. 1).
FIG. 1 illustrates induction of apoptosis in Jurkat cells treated for 36 h with DMSO control, colchicine (5 μM) and selected pyridone library analogues (5 μM) in the flow cytometric annexin-V/propidium iodide assay. Error bars represent data

MCF-7 = test: MTT cell viability assay, MCF-7 cells; assay type: cell-based; conditions: Homo sapiens, MCF7, 48 h treatment, ± SD, two experiments, 8 replicates
Jurkat cells [2] = test: DNA laddering assay; assay type: cell-based, human; conditions: 36 h, 1.5% agarose gel
Procedure: Since endonuclease-mediated cleavage of nuclear DNA resulting in formation of oligonucleosomal DNA fragments (180-200 base pairs long) is a hallmark of apoptosis in many cell types, apoptosis was further investigated with the DNA laddering assay (FIG. 2). Jurkat cells were treated with DMSO (lane A), analogues 40 and 41 (lanes B and C), and paclitaxel (lane D) for 36 h. After that the cellular DNA was isolated and electrophoresed in a 1.5% agarose gel. […] No laddering was observed when the cells were treated with DMSO control.
FIG. 2 illustrates DNA laddering in Jurkat cells after 36 h of treatment. (A) DMSO control, (B) 40 at 1.5 μM, (C) 41 at 1.5 μM, (D) paclitaxel at 0.4 μM, and (E) Molecular weight marker (KB).

tubulin = test: In vitro tubulin polymerization (fluorescence); assay type: biochemical; conditions: relative to 0.05% DMSO control
Excerpt: To obtain further support for the proposed antitubulin mechanism of action for our heterocycles, we assessed the effect of pyranoquinolones on in vitro tubulin polymerization. In this assay microtubule formation is monitored by the increase in fluorescence intensity of the reaction mixture.
FIG. 4 illustrates the effect of our compounds on in vitro tubulin polymerization.

Jurkat cells [3] = test: Flow cytometric cell cycle analysis (Vybrant Orange staining); assay type: cell-based, human; conditions: for cell cycle arrest: Jurkat cell line, flow cytometric cell cycle analysis; for % relative DNA content G0/G1 / % relative DNA content G2/M / % relative DNA content S: Jurkat, 1 μM, 24 h, ± SD
Excerpt: Our libraries of compounds exert their antiproliferative properties through inhibition of tubulin dynamics, thereby inducing mitotic arrest and initiating apoptosis in cancer cells. […] This effect is characteristic of antimitotic agents disrupting microtubule assembly.

Jurkat cells [4] = test: Light microscopy of morphological changes; assay type: cell-based, human; conditions: 1 μM, 2 h
Procedure: Morphological changes of cells treated with potent analogues can be visually observed with light microscopy (FIG. 3).
FIG. 3 illustrates light microscopy pictures. Treatment of Jurkat cells with 40 (C) and 41 (D) for 2 hours induces formation of finger-like extensions (black arrows) and shriveling (white arrows). 0.1% DMSO (A) and a known anticancer agent (B) were used as controls. All compounds are used at 1 μM. The scale bar indicates 40 μm.

Structure (SMILES)	GI50 (HeLa) [nM]	GI50 (MCF-7) [nM]	other results
COc1cc(C2C(C#N)=C(N)Oc3cc(C)n(C)c(=O)c32)cc(Br)c1O (stereo not shown) [Compound 11, 2-Amino-4-(3-bromo-4-hydroxy-5-methoxyphenyl)-6,7-dimethyl-5-oxo-5,6-dihydro-4H-pyrano[3,2-c]pyridine-3-carbonitrile]	2700 ± 1100	–	–
COc1ccc(CCn2c(C)cc3c(c2=O)C(c2cc(OC)c(OC)c(OC)c2)C(C#N)=C(N)O3)cc1OC (stereo not shown) [Compound 20, 2-Amino-6-(3,4-dimethoxyphenethyl)-7-methyl-5-oxo-4-(3,4,5-trimethoxyphenyl)-5,6-dihydro-4H-pyrano[3,2-c]pyridine-3-carbonitrile]	22700 ± 6400	–	induction of apoptosis in Jurkat cells (Jurkat cells [1]): do not induce apoptosis
Cc1cc2c(c(=O)n1C)C(c1ccc(C(C)C)cc1)C(C#N)=C(N)O2 (stereo not shown) [Compound 17, 2-Amino-4-(4-isopropylphenyl)-6,7-dimethyl-5-oxo-5,6-dihydro-4H-pyrano[3,2-c]pyridine-3-carbonitrile]	> 100000	–	induction of apoptosis in Jurkat cells (Jurkat cells [1]): do not induce apoptosis
COc1cc(C2C(C#N)=C(N)Oc3c2c(=O)n(C)c2ccccc32)cc([N+](=O)[O-])c1O (stereo not shown) [Compound 25, 2-Amino-4-(4-hydroxy-3-methoxy-5-nitrophenyl)-6-methyl-5-oxo-5,6-dihydro-4H-pyrano[3,2-c]quinoline-3-carbonitrile]	630 ± 20	710 ± 120	–
Cc1cc2c(c(=O)n1C)C(c1cccc(Br)c1)C(C#N)=C(N)O2 (stereo not shown) [Compound 14, 2-Amino-4-(3-bromophenyl)-6,7-dimethyl-5-oxo-5,6-dihydro-4H-pyrano[3,2-c]pyridine-3-carbonitrile]	6500 ± 1300	–	–
Cn1c(=O)c2c(c3ccccc31)OC(N)=C(C#N)C2c1cccc(Br)c1 (stereo not shown) [Compound 37, 2-Amino-4-(3-bromophenyl)-6-methyl-5-oxo-5,6-dihydro-4H-pyrano[3,2-c]quinoline-3-carbonitrile]	740 ± 30	3 ± 1	–
Cc1cc2c(c(=O)n1C)C(c1ccc(N(C)C)c(Br)c1)C(C#N)=C(N)O2 (stereo not shown) [Compound 8, 2-Amino-4-[3-bromo-4-(dimethylamino)phenyl]-6,7-dimethyl-5-oxo-5,6-dihydro-4H-pyrano[3,2-c]pyridine-3-carbonitrile]	330 ± 60	–	–
CCOc1c(Br)cc(C2C(C#N)=C(N)Oc3cc(C)n(C)c(=O)c32)cc1OC (stereo not shown) [Compound 10, 2-Amino-4-(3-bromo-4-ethoxy-5-methoxyphenyl)-6,7-dimethyl-5-oxo-5,6-dihydro-4H-pyrano[3,2-c]pyridine-3-carbonitrile]	1100 ± 800	–	–
COc1cc([C@@H]2c3cc4c(cc3[C@H](O)[C@H]3COC(=O)[C@H]23)OCO4)cc(OC)c1OC [podophyllotoxin, reference compound]	–	–	effect on in vitro tubulin polymerization (tubulin; 25 μM): completely suppress tubulin polymerization
Cc1cc2c(c(=O)n1C)C(c1ccc(Cl)c(Cl)c1)C(C#N)=C(N)O2 (stereo not shown) [Compound 15, 2-Amino-4-(3,4-dichlorophenyl)-6,7-dimethyl-5-oxo-5,6-dihydro-4H-pyrano[3,2-c]pyridine-3-carbonitrile]	18300 ± 2900	–	induction of apoptosis in Jurkat cells (Jurkat cells [1]): do not induce apoptosis
Cc1cc2c(c(=O)n1C)C(c1ccc(F)c(Br)c1)C(C#N)=C(N)O2 (stereo not shown) [Compound 13, 2-Amino-4-(3-bromo-4-fluorophenyl)-6,7-dimethyl-5-oxo-5,6-dihydro-4H-pyrano[3,2-c]pyridine-3-carbonitrile]	6400 ± 1100	–	–
COc1ccc(C2C(C#N)=C(N)Oc3c2c(=O)n(C)c2ccccc32)cc1Br (stereo not shown) [Compound 43, 2-Amino-4-(3-bromo-4-methoxyphenyl)-6-methyl-5-oxo-5,6-dihydro-4H-pyrano[3,2-c]quinoline-3-carbonitrile]	410 ± 40	500 ± 100	–
CC(=O)O[C@H]1C(=O)[C@@]2(C)[C@H]([C@H](OC(=O)c3ccccc3)[C@]3(O)C[C@H](OC(=O)[C@H](O)[C@@H](NC(=O)c4ccccc4)c4ccccc4)C(C)=C1C3(C)C)[C@]1(OC(C)=O)CO[C@@H]1C[C@@H]2O [paclitaxel, reference compound]	–	–	DNA laddering in Jurkat cells (Jurkat cells [2]; 0.4 μM): characteristic ladder pattern was obtained; effect on in vitro tubulin polymerization (tubulin; 3 μM): promotes microtubule formation
COc1cc(C2C(C#N)=C(N)Oc3cc(C)n(C)c(=O)c32)cc(Br)c1OC (stereo not shown) [Compound 9, 2-Amino-4-(3-bromo-4,5-dimethoxyphenyl)-6,7-dimethyl-5-oxo-5,6-dihydro-4H-pyrano[3,2-c]pyridine-3-carbonitrile]	580 ± 140	–	–
COc1cc(C2C(C#N)=C(N)Oc3cc(C)n(C)c(=O)c32)cc(Br)c1OC(C)=O (stereo not shown) [Compound 12, 4-(2-Amino-3-cyano-6,7-dimethyl-5-oxo-5,6-dihydro-4H-pyrano[3,2-c]pyridin-4-yl)-2-bromo-6-methoxyphenyl acetate]	3500 ± 1300	–	–

Now from value to compound, other results behind:

GI50 (HeLa) [nM]	GI50 (MCF-7) [nM]	Structure (SMILES)	other results
14 ± 3	380 ± 30	COc1cc(C2C(C#N)=C(N)Oc3c2c(=O)n(C)c2ccccc32)cc(Br)c1OC (stereo not shown) [Compound 41, 2-Amino-4-(3-bromo-4,5-dimethoxyphenyl)-6-methyl-5-oxo-5,6-dihydro-4H-pyrano[3,2-c]quinoline-3-carbonitrile]	DNA laddering in Jurkat cells (Jurkat cells [2]; 1.5 μM): characteristic ladder pattern was obtained; effect on in vitro tubulin polymerization (tubulin; 25 μM): completely suppress tubulin polymerization; cell cycle arrest (Jurkat cells [3]): pronounced cell cycle arrest in the G2/M phase; % relative DNA content G0/G1 (Jurkat cells [3]): 20 ± 2%; % relative DNA content G2/M (Jurkat cells [3]): 49 ± 2%; % relative DNA content S (Jurkat cells [3]): 28 ± 2%; morphological (phenotypic) changes of Jurkat cells (Jurkat cells [4]): formation of finger-like extensions and shriveling
77 ± 6	75 ± 7	Cn1c(=O)c2c(c3ccccc31)OC(N)=C(C#N)C2c1cc(Br)cc(Br)c1 (stereo not shown) [Compound 42, 2-Amino-4-(3,5-dibromophenyl)-6-methyl-5-oxo-5,6-dihydro-4H-pyrano[3,2-c]quinoline-3-carbonitrile]	–
270 ± 20	430 ± 10	Cn1c(=O)c2c(c3ccccc31)OC(N)=C(C#N)C2c1cc(Br)c(O)c(Br)c1 (stereo not shown) [Compound 39, 2-Amino-4-(3,5-dibromo-4-hydroxyphenyl)-6-methyl-5-oxo-5,6-dihydro-4H-pyrano[3,2-c]quinoline-3-carbonitrile]	–
240 ± 20	1000 ± 300	COc1cc(C2C(C#N)=C(N)Oc3c2c(=O)n(C)c2ccccc32)cc(OC)c1OC (stereo not shown) [Compound 22, 2-Amino-6-methyl-5-oxo-4-(3,4,5-trimethoxyphenyl)-5,6-dihydro-4H-pyrano[3,2-c]quinoline-3-carbonitrile]	–
270 ± 30	810 ± 80	Cn1c(=O)c2c(c3ccccc31)OC(N)=C(C#N)C2c1ccc(F)c(Br)c1 (stereo not shown) [Compound 38, 2-Amino-4-(3-bromo-4-fluorophenyl)-6-methyl-5-oxo-5,6-dihydro-4H-pyrano[3,2-c]quinoline-3-carbonitrile]	–
47 ± 10	390 ± 160	COc1cc(C2C(C#N)=C(N)Oc3c2c(=O)n(C)c2ccccc32)cc(Br)c1O (stereo not shown) [Compound 40, 2-Amino-4-(3-bromo-4-hydroxy-5-methoxyphenyl)-6-methyl-5-oxo-5,6-dihydro-4H-pyrano[3,2-c]quinoline-3-carbonitrile]	DNA laddering in Jurkat cells (Jurkat cells [2]; 1.5 μM): characteristic ladder pattern was obtained; effect on in vitro tubulin polymerization (tubulin; 25 μM): completely suppress tubulin polymerization; cell cycle arrest (Jurkat cells [3]): pronounced cell cycle arrest in the G2/M phase; % relative DNA content G0/G1 (Jurkat cells [3]): 27 ± 3%; % relative DNA content G2/M (Jurkat cells [3]): 47 ± 3%; % relative DNA content S (Jurkat cells [3]): 22 ± 2%; morphological (phenotypic) changes of Jurkat cells (Jurkat cells [4]): formation of finger-like extensions and shriveling
180 ± 20	25 ± 60	COc1cc(C2C(C#N)=C(N)Oc3c2c(=O)n(C)c2ccccc32)cc(Br)c1OC(C)=O (stereo not shown) [Compound 4, 4-(2-Amino-3-cyano-6-methyl-5-oxo-5,6-dihydro-4H-pyrano[3,2-c]quinolin-4-yl)-2-bromo-6-methoxyphenyl acetate]	–
13 ± 3	15 ± 8	Cn1c(=O)c2c(c3ccccc31)OC(N)=C(C#N)C2c1cncc(Br)c1 (stereo not shown) [Compound 3, 2-Amino-4-(5-bromo-3-pyridinyl)-6-methyl-5-oxo-5,6-dihydro-4H-pyrano[3,2-c]quinoline-3-carbonitrile]	–

From US8349864B2, “Pyrano [3,2-C] pyridones and related heterocyclic compounds as pharmaceutical agents for treating disorders responsive to apoptosis, antiproliferation or vascular disruption, and the use thereof” (New Mexico Technical Research Foundation, priority 2009, dated 2013)
